Measurements: patent publication US20110039763A1, “TARGETED ANTIMICROBIAL MOIETIES” (C3 JIAN, INC., priority 2009, published 2011)
“Also recorded” adds a separate entry of the source.

Tested on: microorganisms
Experiment: Targeting peptide binding to target microorganisms (Tables 3, 10, 12)
Details: microorganism(s) the targeting peptide binds, preferably 1x PBS
[1] = binding in aqueous buffers varied with peptide solubility
[2] = binding in aqueous buffers that varied with peptide solubility

PEIIKIVSGLL [PF-758]
Target(s) [1]: S. epidermidis and M. luteus and E. coli and MRSA and S. pneumoniae and E. faecalis and C. jeikeium

PF670 (chain 1 TVIVAPMHSGV; chain 2 TVIVAPMHSGV; Peptide with targeting and/or antimicrobial activity)
Target(s) [1]: Mycobacteria spp

PF-014 (HPTDNKHN; Peptide with targeting and/or antimicrobial activity)
Target(s) [2]: E. coli; also recorded: C. jeikeium

PF-016 (RKQYDDLSFNFLY; Peptide with targeting and/or antimicrobial activity)
Target(s) [2]: S. epidermidis; also recorded: E. faecalis; also recorded: C. jeikeium

PF-018 (YYKTYFKEV; Peptide with targeting and/or antimicrobial activity)
Target(s) [2]: E. coli; also recorded: C. jeikeium

PF-038 (MAYKDEGKETKFAVKGYKD; Peptide with targeting and/or antimicrobial activity)
Target(s) [2]: M. luteus

PF-039 (MLEEKNKSL; Peptide with targeting and/or antimicrobial activity)
Target(s) [2]: P. mirabilis; also recorded: C. jeikeium

PF-044 (KLKKYIHKPD; Peptide with targeting and/or antimicrobial activity)
Target(s) [2]: S. epidermidis and M. luteus and MRSA and C. jeikeium

PF-047 (NQEPSLQQDKEQKDNKG; Peptide with targeting and/or antimicrobial activity)
Target(s) [2]: S. mutans

PF-050 (SYYLKRREEKGK; Peptide with targeting and/or antimicrobial activity)
Target(s) [2]: S. epidermidis; also recorded: M. luteus; also recorded: E. coli; also recorded: C. jeikeium

PF-054 (VSISRFIGGGHVFNGNNKRNL; Peptide with targeting and/or antimicrobial activity)
Target(s) [2]: S. epidermidis; also recorded: E. coli

PF-055 (GHVFNGNNKRNL; Peptide with targeting and/or antimicrobial activity)
Target(s) [2]: S. mutans

PF-060 (HSSHL; Peptide with targeting and/or antimicrobial activity)
Target(s) [2]: E. coli; also recorded: C. albicans; also recorded: C. jeikeium

PF-062 (MKKKRINNDILGRMIYSSSIDKRNLYNLKYYE; Peptide with targeting and/or antimicrobial activity)
Target(s) [2]: S. epidermidis and M. luteus and E. coli and P. aeruginosa and MRSA and S. pneumoniae and E. faecalis and C. jeikeium

PF-097 (QPTQGEQGTRPRRPTPMRGLLI; Peptide with targeting and/or antimicrobial activity)
Target(s) [1]: C. jeikeium

PF-101 (DPVPERQEQACACHRTAKPGK; Peptide with targeting and/or antimicrobial activity)
Target(s) [1]: S. mutans

PF-104 (ERTAVNDLWI; Peptide with targeting and/or antimicrobial activity)
Target(s) [1]: MRSA and C. jeikeium

PF-130 (LQRSDEESMPRRHEKYS; Peptide with targeting and/or antimicrobial activity)
Target(s) [1]: E. faecalis; also recorded: C. jeikeium; also recorded: C. jejuni

PF-131 (RRAAARTKGNRR; Peptide with targeting and/or antimicrobial activity)
Target(s) [1]: S. epidermidis and E. coli and MRSA and C. jeikeium

PF-132 (RPGDGAAEQGRSR; Peptide with targeting and/or antimicrobial activity)
Target(s) [1]: S. epidermidis; also recorded: C. jeikeium

PF-134 (GKAMKRQDCSAL; Peptide with targeting and/or antimicrobial activity)
Target(s) [1]: S. epidermidis; also recorded: C. jeikeium

PF-138 (AVHHSLLFR; Peptide with targeting and/or antimicrobial activity)
Target(s) [1]: S. epidermidis and M. luteus and P. mirabilis and E. coli and C. albicans and MRSA and C. jeikeium and C. jejuni

PF-141 (VVRRFQGM; Peptide with targeting and/or antimicrobial activity)
Target(s) [1]: S. epidermidis and M. luteus and C. albicans and MRSA and C. jeikeium

PF-142 (GIDRGCQAAR; Peptide with targeting and/or antimicrobial activity)
Target(s) [1]: S. mutans

PF-146 (GCGKRRIITKSASRDTR; Peptide with targeting and/or antimicrobial activity)
Target(s) [1]: S. epidermidis and M. luteus and P. aeruginosa and C. albicans and MRSA and C. jeikeium

PF-147 (RRPRRRRSGHGQSASAA; Peptide with targeting and/or antimicrobial activity)
Target(s) [1]: S. epidermidis and M. luteus and MRSA

PF-150 (EIQAKGTG; Peptide with targeting and/or antimicrobial activity)
Target(s) [1]: S. epidermidis and MRSA

PF-151 (EEYPARVPLSGEDVTEARRH; Peptide with targeting and/or antimicrobial activity)
Target(s) [1]: S. epidermidis and MRSA and E. faecalis and C. jeikeium

PF-152 (VGYFIWKDSHSRKG; Peptide with targeting and/or antimicrobial activity)
Target(s) [1]: S. epidermidis and C. albicans and MRSA and E. faecalis and C. jeikeium

PF-154 (GIKKSKHPSTDDYVVKTTIDSL; Peptide with targeting and/or antimicrobial activity)
Target(s) [1]: S. mutans

PF-155 (GRYGDDSKERQGRAQ; Peptide with targeting and/or antimicrobial activity)
Target(s) [1]: C. jeikeium

PF-158 (VRLESRPADLPE; Peptide with targeting and/or antimicrobial activity)
Target(s) [1]: S. epidermidis

PF-159 (TMAFVEKAQLRVPVGDDLPV; Peptide with targeting and/or antimicrobial activity)
Target(s) [1]: S. epidermidis

PF-160 (SFHASLTKNEKPIKSTG; Peptide with targeting and/or antimicrobial activity)
Target(s) [1]: S. epidermidis

PF-161 (RGRALASTATTRPARRRR; Peptide with targeting and/or antimicrobial activity)
Target(s) [1]: S. epidermidis; also recorded: M. luteus; also recorded: E. coli; also recorded: C. jejuni

PF-162 (GIRRLHSVENLNREISHRMAGLR; Peptide with targeting and/or antimicrobial activity)
Target(s) [1]: S. epidermidis and MRSA

PF-163 (TSWLRAAERQEIGEPTKTFGEKTTSL; Peptide with targeting and/or antimicrobial activity)
Target(s) [1]: S. epidermidis

PF-165 (GPVSVVASLRRGTTVQRHSQNNHNKGKP; Peptide with targeting and/or antimicrobial activity)
Target(s) [1]: MRSA and C. jejuni

PF-166 (SKAVSRKRSI; Peptide with targeting and/or antimicrobial activity)
Target(s) [1]: E. coli; also recorded: C. jeikeium

PF-169 (APGSAADSPRSRADD; Peptide with targeting and/or antimicrobial activity)
Target(s) [1]: S. epidermidis; also recorded: E. coli; also recorded: C. albicans; also recorded: E. faecalis; also recorded: C. jeikeium

PF-172 (LTGVRRPWRAPWAGTSGWALR; Peptide with targeting and/or antimicrobial activity)
Target(s) [1]: S. epidermidis and M. luteus and E. coli and P. aeruginosa and MRSA and E. faecalis and C. jejuni

PF-174 (RGGDSPARRRPGLAGPGGPG; Peptide with targeting and/or antimicrobial activity)
Target(s) [1]: S. epidermidis; also recorded: P. aeruginosa; also recorded: C. jeikeium

PF-177 (VTSEPGIAHDIRLLPRAAAFR; Peptide with targeting and/or antimicrobial activity)
Target(s) [1]: M. luteus and MRSA and E. faecalis and C. jeikeium

PF-181 (GIAPRRNEWGAVGGR; Peptide with targeting and/or antimicrobial activity)
Target(s) [1]: S. epidermidis and M. luteus and E. coli and MRSA and E. faecalis and C. jeikeium

PF-182 (LPATRDKTRVPASVAGAP; Peptide with targeting and/or antimicrobial activity)
Target(s) [1]: S. epidermidis; also recorded: M. luteus; also recorded: E. coli; also recorded: E. faecalis; also recorded: C. jeikeium

PF-183 (KPGISVENRQ; Peptide with targeting and/or antimicrobial activity)
Target(s) [1]: S. epidermidis and M. luteus and E. coli and C. albicans and MRSA and E. faecalis and C. jeikeium

PF-184 (LIADRHIRA; Peptide with targeting and/or antimicrobial activity)
Target(s) [1]: S. epidermidis and M. luteus and E. coli and P. aeruginosa and C. albicans and MRSA and C. jeikeium

PF-185 (RPAQARQGPGGLIADRHIRA; Peptide with targeting and/or antimicrobial activity)
Target(s) [1]: E. coli; also recorded: P. aeruginosa

PF-187 (EIQKIAKGVSGQVYGPSRQITISKKR; Peptide with targeting and/or antimicrobial activity)
Target(s) [1]: S. epidermidis and M. luteus and E. coli and MRSA

PF-189 (GNLTRSREAARATQ; Peptide with targeting and/or antimicrobial activity)
Target(s) [1]: S. epidermidis and M. luteus and C. albicans and MRSA and E. faecalis and C. jejuni

PF-193 (PPHCPPGHAKKGWC; Peptide with targeting and/or antimicrobial activity)
Target(s) [1]: S. epidermidis and M. luteus and E. coli and MRSA and E. faecalis and C. jejuni

PF-194 (MKGNKLATAHEQPVKNSAPPL; Peptide with targeting and/or antimicrobial activity)
Target(s) [1]: C. jeikeium

PF-195 (EMAEGSADDRLRKTPRDC; Peptide with targeting and/or antimicrobial activity)
Target(s) [1]: S. epidermidis; also recorded: M. luteus; also recorded: E. faecalis; also recorded: C. jeikeium

PF-197 (CNALLRRGHPPSAL; Peptide with targeting and/or antimicrobial activity)
Target(s) [1]: S. epidermidis; also recorded: M. luteus; also recorded: C. albicans; also recorded: E. faecalis; also recorded: C. jejuni
